Values after ≈ are worked out from the molar mass of the structure shown.
Legend:
[1] = target: Proto-oncogene tyrosine-protein kinase Src (Homo sapiens, UniProt P12931); assay: Inhibition of Src by HTRF assay
[2] = target: Vascular endothelial growth factor receptor 2 (Homo sapiens, UniProt P35968); assay: Inhibition of KDR by HTRF assay
Lymphocyte = assay: Inhibition of T cell activation in human peripheral blood lymphocytes by mixed lymphocyte reaction; format: functional, cell-based
[3] = target: Tyrosine-protein kinase Lck (Homo sapiens, UniProt P06239)
Description: Inhibition of Lck by HTRF assay

[4] = target: Mitogen-activated protein kinase 14 (Homo sapiens, UniProt Q16539); assay: Inhibition of p38-alpha by HTRF assay
T-cell = assay: Inhibition of anti-CD3/CD28-induced IL2 production in human T cells; format: functional, cell-based
[5] = Solubility in simulated intestinal fluid at pH 6.8; format: physicochemical

Tyrosine-protein kinase Lck, sequence (P06239 whole entry): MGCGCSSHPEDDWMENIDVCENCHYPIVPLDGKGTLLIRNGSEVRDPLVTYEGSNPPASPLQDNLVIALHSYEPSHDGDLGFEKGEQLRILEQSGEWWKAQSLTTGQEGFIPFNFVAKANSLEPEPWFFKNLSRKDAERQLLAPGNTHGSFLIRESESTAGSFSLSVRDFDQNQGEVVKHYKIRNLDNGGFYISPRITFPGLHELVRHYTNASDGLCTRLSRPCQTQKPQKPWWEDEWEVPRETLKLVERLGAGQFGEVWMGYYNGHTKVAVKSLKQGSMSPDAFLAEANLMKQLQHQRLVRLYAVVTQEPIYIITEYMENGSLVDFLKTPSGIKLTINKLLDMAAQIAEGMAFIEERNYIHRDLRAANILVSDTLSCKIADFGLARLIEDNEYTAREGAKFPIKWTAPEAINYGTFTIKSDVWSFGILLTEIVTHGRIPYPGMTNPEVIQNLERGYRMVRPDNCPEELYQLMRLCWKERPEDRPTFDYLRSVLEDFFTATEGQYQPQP
Mitogen-activated protein kinase 14, sequence (Q16539 whole entry): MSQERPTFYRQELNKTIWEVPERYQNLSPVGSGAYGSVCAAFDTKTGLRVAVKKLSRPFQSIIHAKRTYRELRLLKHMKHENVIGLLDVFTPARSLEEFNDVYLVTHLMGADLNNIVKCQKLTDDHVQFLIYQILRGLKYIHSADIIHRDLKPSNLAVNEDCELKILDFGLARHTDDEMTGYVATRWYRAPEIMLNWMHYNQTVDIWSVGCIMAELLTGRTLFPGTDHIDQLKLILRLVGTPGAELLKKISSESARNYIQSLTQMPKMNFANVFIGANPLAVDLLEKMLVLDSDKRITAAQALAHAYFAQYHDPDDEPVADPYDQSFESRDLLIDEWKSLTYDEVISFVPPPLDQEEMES
Vascular endothelial growth factor receptor 2, sequence (P35968 whole entry): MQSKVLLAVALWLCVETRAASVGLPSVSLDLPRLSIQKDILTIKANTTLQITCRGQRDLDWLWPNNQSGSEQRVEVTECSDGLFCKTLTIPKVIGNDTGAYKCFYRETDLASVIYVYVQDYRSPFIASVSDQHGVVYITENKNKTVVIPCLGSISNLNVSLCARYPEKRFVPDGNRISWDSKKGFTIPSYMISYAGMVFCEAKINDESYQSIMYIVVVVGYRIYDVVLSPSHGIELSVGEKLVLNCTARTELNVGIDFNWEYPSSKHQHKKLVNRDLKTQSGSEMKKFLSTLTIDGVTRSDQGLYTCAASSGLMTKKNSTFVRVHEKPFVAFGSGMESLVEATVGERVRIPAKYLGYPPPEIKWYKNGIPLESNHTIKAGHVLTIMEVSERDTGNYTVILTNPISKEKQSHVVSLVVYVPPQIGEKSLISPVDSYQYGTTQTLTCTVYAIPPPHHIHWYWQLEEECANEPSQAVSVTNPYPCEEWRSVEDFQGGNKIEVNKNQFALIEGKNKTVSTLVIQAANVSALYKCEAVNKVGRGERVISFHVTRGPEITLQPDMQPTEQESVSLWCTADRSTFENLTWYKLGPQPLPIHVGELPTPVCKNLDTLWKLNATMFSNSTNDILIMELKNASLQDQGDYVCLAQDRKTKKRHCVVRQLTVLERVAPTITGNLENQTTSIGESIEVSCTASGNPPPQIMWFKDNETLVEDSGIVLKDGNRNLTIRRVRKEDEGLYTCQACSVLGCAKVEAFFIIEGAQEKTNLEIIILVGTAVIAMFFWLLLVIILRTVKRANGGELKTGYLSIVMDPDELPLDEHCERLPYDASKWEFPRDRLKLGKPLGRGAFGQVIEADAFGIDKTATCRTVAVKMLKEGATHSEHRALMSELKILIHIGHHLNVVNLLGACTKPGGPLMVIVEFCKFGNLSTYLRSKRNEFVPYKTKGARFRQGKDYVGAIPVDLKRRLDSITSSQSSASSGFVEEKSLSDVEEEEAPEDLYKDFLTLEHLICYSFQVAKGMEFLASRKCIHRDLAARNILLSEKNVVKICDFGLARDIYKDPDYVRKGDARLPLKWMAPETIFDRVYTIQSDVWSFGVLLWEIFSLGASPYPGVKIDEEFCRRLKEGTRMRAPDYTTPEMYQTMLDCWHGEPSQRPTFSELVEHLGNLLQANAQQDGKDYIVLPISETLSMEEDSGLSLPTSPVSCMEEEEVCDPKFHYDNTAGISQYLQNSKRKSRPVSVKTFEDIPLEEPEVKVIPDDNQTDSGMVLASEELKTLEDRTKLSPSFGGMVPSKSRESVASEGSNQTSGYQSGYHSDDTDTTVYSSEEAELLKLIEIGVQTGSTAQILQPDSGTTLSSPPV
Proto-oncogene tyrosine-protein kinase Src, sequence (P12931 2-536 limits assumed): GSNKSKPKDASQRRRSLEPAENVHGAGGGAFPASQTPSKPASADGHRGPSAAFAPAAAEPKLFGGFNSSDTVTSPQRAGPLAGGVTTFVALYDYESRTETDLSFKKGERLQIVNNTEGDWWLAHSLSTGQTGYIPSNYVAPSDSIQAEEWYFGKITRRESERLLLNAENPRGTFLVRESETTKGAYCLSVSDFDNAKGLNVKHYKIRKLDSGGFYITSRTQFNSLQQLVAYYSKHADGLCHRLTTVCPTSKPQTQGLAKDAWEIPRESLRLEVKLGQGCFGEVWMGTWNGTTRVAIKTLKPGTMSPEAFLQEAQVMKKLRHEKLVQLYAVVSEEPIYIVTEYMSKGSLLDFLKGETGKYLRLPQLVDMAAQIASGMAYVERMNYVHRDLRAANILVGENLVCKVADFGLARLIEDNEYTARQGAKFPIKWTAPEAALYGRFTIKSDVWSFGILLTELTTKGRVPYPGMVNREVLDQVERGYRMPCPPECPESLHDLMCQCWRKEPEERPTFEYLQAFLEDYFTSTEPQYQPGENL

| Structure (SMILES) | IC50 [1] | IC50 [2] | IC50 (Lymphocyte) | IC50 [3] | IC50 [4] | IC50 (T-cell) | solubility [5] |
| --- | --- | --- | --- | --- | --- | --- | --- |
| CN1CCN(c2ccc(Nc3ncc4c(=O)n(-c5c(Cl)cccc5Cl)c5nc6ccccc6n5c4n3)cc2)CC1 | 49 nM | 530 nM | 1100 nM | 10 nM | – | – | – |
| Cc1cccc(C)c1-n1c(=O)c2cnc(Nc3ccc(OCCCN(C)C)cc3)nc2n2c3ccccc3nc12 | 360 nM | 4200 nM | 100 nM | – | > 10000 nM | 1100 nM | 155 µg/mL (≈ 290 µM) |
| COc1cc(Nc2ncc3c(=O)n(-c4c(C)cccc4C)c4nc5ccccc5n4c3n2)cc(OC)c1OCCN1CCN(C)CC1 | 77 nM | 3300 nM | 290 nM | 6 nM | > 10000 nM | 610 nM | > 200 µg/mL |
| CCCCOc1ccc(-n2c(=O)c3cnc(Nc4ccc(N5CCN(C)CC5)cc4)nc3n3c4ccccc4nc23)cc1 | 8300 nM | > 25000 nM | – | 4600 nM | – | – | – |
| Cc1cccc(-n2c(=O)c3cnc(Nc4ccc(N5CCN(C)CC5)cc4)nc3n3c4ccccc4nc23)c1 | 1000 nM | > 25000 nM | – | 96 nM | – | – | – |
| Cc1cccc(C)c1-n1c(=O)c2cnc(Nc3ccc(OCCN4CCN(C)CC4)c(F)c3)nc2n2c3ccccc3nc12 | 160 nM | 7400 nM | 510 nM | 23 nM | > 10000 nM | 2700 nM | – |
| COc1cc(Nc2ncc3c(=O)n(-c4c(C)cccc4C)c4nc5ccccc5n4c3n2)ccc1OCCCN1CCN(C)CC1 | 180 nM | 5000 nM | 140 nM | 12 nM | > 10000 nM | 1500 nM | > 200 µg/mL |
| Cc1cccc(C)c1-n1c(=O)c2cnc(Nc3ccc(OCCCN4CCCCC4)cc3)nc2n2c3ccccc3nc12 | 160 nM | 5100 nM | 370 nM | 12 nM | 4300 nM | 3600 nM | 101 µg/mL (≈ 176 µM) |
| COc1cc(Nc2ncnc(-n3c(Nc4ccccc4)nc4ccccc43)n2)cc(OC)c1OC | – | – | – | – | 463 nM | – | – |
| COc1cc(Nc2ncc3c(=O)n(-c4c(C)cccc4C)c4nc5ccccc5n4c3n2)cc(OC)c1OCCCN1CCN(C)CC1 | 70 nM | 4000 nM | 80 nM | 6 nM | > 10000 nM | 190 nM | – |
